Source: article PMC9821961, “Ring-Modified Histidine-Containing Cationic Short Peptides Exhibit Anticryptococcal Activity by Cellular Disruption” (Molecules, 2022)
Converted amounts (≈) assume the structure as drawn. Like-named read-outs stand apart in the source and are kept apart here.

Tests used:
[1] = system: Cryptococcal cells
[2] = system: Cryptococcal cells; assay: microbe, parasite or virus in culture; conditions: Cryptococcus neoformans, read-out: MIC Alone
[3] = system: C. albicans; assay: microbe, parasite or virus in culture; format: cell-based, Candida albicans
Source text: (§1) Microbial strains: Microbial strains were procured from National Culture Collection of Pathogenic Fungi (NCCPF) at the Postgraduate Institute of Medical Education & Research (PGIMER), Chandigarh and Microbial Type Culture Collection and Gene bank (MTCC) at the Institute of Microbial Technology (IMTECH), Chandigarh, India. Peptides were screened against five different strains of fungi: viz. Candida albicans (NCCPF400034), Candida glabrata (MTCC 3019), Candida parapsilosis (NCCPF 440002), Candida krusei (NCCPF 440002) and Cryptococcus neoformans (NCCPF250316), and five strains of bacteria: viz. Escherichia coli (MTCC 2961), Staphylococcus aureus (MTCC 3160), Enterococcus faecalis (MTCC 439), Streptococcus pyogenes (MTCC 442) and Pseudomonas aeruginosa (MTCC 3542).
(§2) Growth media: Antifungal susceptibility testing was carried out using standard broth microdilution assays as per the Clinical and Laboratory Standards Institute (CLSI) guidelines for fungi. RPMI 1640 (Sigma), yeast extract, peptone and dextrose (YPED, Himedia) were used as the incubation broths. The cells were diluted to a cell density of 10^3 colony forming unit (CFU/mL) and incubated at 30 °C for 48 h. Furthermore, Muller Hinton (Himedia) media was utilized for bacterial strains and antibacterial activity was evaluated per CLSI guidelines for bacteria. Bacterial cells were diluted to a cell density of 10^5 CFU/mL and incubated at 37 °C for 24 h. Amphotericin B (Himedia, India) and rifampicin (Himedia, India) were used as standard drugs for the evaluation of activity against all the fungal and bacterial strains, respectively.
(§3) The stock solutions of peptides (2 mg/mL) were prepared in DMSO. Specific amounts of peptide from stock solution were added to a 96-well microtiter plate containing 100 μL of growth media and then serially diluted two-fold. A further 100 μL of growth media containing microbial cells were added to each well and incubated at 30–37 °C for 24–48 h. The optical density (OD) was measured at 600 nm using a BioStack Ready (BioTek Instruments, Winooski, VT, USA) microplate reader to analyze microbial growth inhibition, and IC50 and MIC values were calculated. To visualize the growth and inhibition pattern, a solution of 3-(4,5-dimethylthiazol-2-yl)-2,5-diphenyltetrazolium bromide (MTT) in water was added to the plate and incubated for 2–3 h. MTT reacts with the mitochondrial dehydrogenases, which are present only in a viable cell, to give blue colored formazan crystals. Therefore, a darker color indicates a high number of viable cells; however, non-viable cells appear pale or colorless.

[4] = system: C. neoformans; assay: microbe, parasite or virus in culture; format: cell-based, Cryptococcus neoformans
Source text: as §1, §2, §3

[5] = system: C. krusei; assay: microbe, parasite or virus in culture; format: cell-based, Candida krusei
Source text: as §1, §2, §3

[6] = system: C. neoformans cells; assay: Time kill assay; conditions: time-kill profile over 24 h
[7] = system: C. parapsilosis; assay: microbe, parasite or virus in culture; format: cell-based, Candida parapsilosis
Source text: as §1, §2, §3

[8] = system: C. glabrata; assay: microbe, parasite or virus in culture; format: cell-based, Candida glabrata
Source text: as §1, §2, §3

[9] = system: C. neoformans cells; assay: CLSM FITC-labeled peptide uptake assay; format: cell-based, Cryptococcus neoformans; conditions: FITC-tagged peptide, 12 h
Method: After incubation, cells were harvested by centrifugation at 2000× g for 10 min at 4 °C and suspended in PBS and mounted on a slide for visualization under a confocal microscope with excitation and emission wavelengths of 488 nm and 515 nm, respectively.

## OC(Cn1cncn1)(Cn1cncn1)c1ccc(F)cc1F [Flu, fluconazole]
[1]; combination 10o + Flu
  Effect: Additive
  FICI: 1.00
  Fold Decrease in MIC: 2
  MIC In Combination: 5.0 µg/mL
[1]; combination 10d + Flu
  Effect: Synergistic
  FICI: 0.19
  Fold Decrease in MIC: 16
  MIC In Combination: 0.625 µg/mL
[1]; combination 10d + Flu, listed as fluconazole
  Fold Decrease in MIC: approx. 16
[1]; cryptococcal cells, agent alone
  MIC Alone: 10.0 µg/mL (≈ 32.7 µM)
[2]
  MIC: 10 µg/mL (≈ 32.7 µM)

## C[C@@H]1[C@H](O)[C@@H](C)/C=C/C=C/C=C/C=C/C=C/C=C/C=C/[C@H](O[C@@H]2O[C@H](C)[C@@H](O)[C@H](N)[C@@H]2O)C[C@@H]2O[C@](O)(C[C@@H](O)C[C@@H](O)[C@H](O)CC[C@@H](O)C[C@@H](O)CC(=O)O[C@H]1C)C[C@H](O)[C@H]2C(=O)O [Amphotericin B, reference compound]
[3]; Candida albicans, C. albicans, read-out: IC50
  IC50: 0.36 µg/mL (≈ 0.39 µM)
[3]; Candida albicans, C. albicans, read-out: MIC
  MIC: 0.72 µg/mL (≈ 0.779 µM)
[4]; Cryptococcus neoformans, C. neoformans, concentration that leads to ~50% inhibition of growth, read-out: IC50
  IC50: 0.5 µg/mL (≈ 0.541 µM)
[4]; Cryptococcus neoformans, C. neoformans, lowest test concentration with no detectable growth, read-out: MIC
  MIC: 1 µg/mL (≈ 1.08 µM)
[5]; Pichia kudriavzevii, C. krusei, read-out: IC50
  IC50: 0.36 µg/mL (≈ 0.39 µM)
[5]; Pichia kudriavzevii, C. krusei, read-out: MIC
  MIC: 0.72 µg/mL (≈ 0.779 µM)
[6]
  Time after which growth/CFUs of cryptococcal cells dropped or were inhibited: 4 h
[7]; Lodderomyces parapsilosis, C. parapsilosis, read-out: IC50
  IC50: 0.36 µg/mL (≈ 0.39 µM)
[7]; Lodderomyces parapsilosis, C. parapsilosis, read-out: MIC
  MIC: 0.72 µg/mL (≈ 0.779 µM)
[8]; Nakaseomyces glabratus, C. glabrata, read-out: IC50
  IC50: 0.18 µg/mL (≈ 0.195 µM)
[8]; Nakaseomyces glabratus, C. glabrata, read-out: MIC
  MIC: 0.36 µg/mL (≈ 0.39 µM)
[1]; combination 10o + Amp B
  Effect: Synergistic
  FICI: 0.31
  Fold Decrease in MIC: 4
  MIC In Combination: 0.250 µg/mL
[1]; combination 10d + Amp B
  Effect: Synergistic
  FICI: 0.18
  Fold Decrease in MIC: 8
  MIC In Combination: 0.125 µg/mL
[2]
  MIC: 1 µg/mL (≈ 1.08 µM)

## COC(=O)[C@H](Cc1ncn(Cc2ccc([N+](=O)[O-])cc2)c1I)NC(=O)[C@@H](N)Cc1c[nH]c2ccccc12 [10h]
[3]; 48 h
  IC50: >35.2 µg/mL
  MIC: >64.0 µg/mL
[4]; 48 h
  MIC: >64.0 µg/mL
[9]
  Fluorescence of cells incubated with FITC-labeled peptide (CLSM): did not show any fluorescence
[5]; 48 h
  IC50: >35.2 µg/mL
  MIC: >64.0 µg/mL
[7]; 48 h
  IC50: >35.2 µg/mL
  MIC: >64.0 µg/mL
[8]; 48 h
  IC50: >35.2 µg/mL
  MIC: >64.0 µg/mL
